# Assay results published in patent US20230312605A1, “PYRROLO[2,1-F][1,2,4]TRIAZINES AND PREPARATION AND USES THEREOF” (BioSplice Therapeutics, Inc., priority 2021, published 2023).
# pEC50: −log10 of the molar value.
# Molecular target: recombinant DYRK1A kinase (Homo sapiens (Human), UniProt Q13627)
# Experiment: DYRK1A kinase assay (Ser/Thr 18 peptide Z-lyte FRET assay)
# Format: biochemical
# Conditions: recombinant DYRK1A 0.25 µg/mL, ATP 15 µM, Ser/Thr peptide 18 4 µM, one hour at room temperature; table head prints EC50, method says IC50
# How it was run: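 Z-lyte FRET format: 1 h room-temperature reaction of 15 µM ATP, 4 µM Ser/Thr 18 peptide and 0.25 µg/mL recombinant human DYRK1A, in duplicate over 11 compound concentrations up to 10 µM. IC50 was derived by non-linear regression of percent phosphorylation calculated from coumarin/fluorescein emission ratios.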
row,pEC50,Compound
1,8.00,"C[C@]1(O)CC[C@@H](Nc2ncc3c(-c4cnc5nccn5c4)ccn3n2)CC1 [Compound 258, (1s,4s)-4-((5-(Imidazo [1,2-a]pyrimidin-6-yl)pyrrolo[2,1-f] [1,2,4]triazin-2-yl)amino)-1-methylcyclohexan-1-ol]"
2,8.40,"Cc1nc2ncc(-c3ccn4nc(NC5CCN(CC(F)F)CC5)ncc34)cc2n1CC(F)F [Compound 1882, 5-(1-(2,2-Difluoroethyl)-2-methyl-1H-imidazo[4,5-b]pyridin-6-yl)-N-(1-(2,2-difluoroethyl)piperidin-4-yl)pyrrolo[2,1-f][1,2,4]triazin-2-amine]"
3,9.00,"Cc1nc2ccc(-c3ccn4nc(N[C@@H]5CN(C6COC6)C[C@@H]5F)ncc34)nc2n1CC(F)F [Compound 1945, 5-(3-(2,2-Difluoroethyl)-2-methyl-3H-imidazo[4,5-b]pyridin-5-yl)-N-((3R,4S)-4-fluoro-1-(oxetan-3-yl)pyrrolidin-3-yl)pyrrolo [2,1-f][1,2,4]triazin-2-amine]"
4,8.15,"O[C@H]1CC[C@@H](Nc2ncc3c(-c4cnc5ncccc5c4)ccn3n2)CC1 [Compound 1535, cis-4-((5-(1.8-Naphthyridin-3-yl)pyrrolo[2,1-f][1,2,4]triazin-2-yl)amino) cyclohexan-1-ol]"
5,7.57,"CC(C)(F)CNc1ncc2c(-c3ccc4nccnc4c3)ccn2n1 [Compound 1352, N-(2-Fluoro-2-methylpropyl)-5-(quinoxalin-6-yl)pyrrolo[2,1-f][1,2,4]triazin-2-amine]"
6,8.30,"Cc1nc2ccc(-c3ccn4nc(N[C@H]5C[C@H](N6CCOCC6)C5)ncc34)nc2n1CC(F)F [Compound 1893, 5-(3-(2,2-Difluoroethyl)-2-methyl-3H-imidazo[4,5-b]pyridin-5-yl)-N-(trans-3-morpholinocyclobutyl)pyrrolo[2,1-f][1,2,4]triazin-2-amine]"
7,8.22,"Cc1nc2ncc(-c3ccn4nc(N[C@@H]5CCN(C)C[C@H]5F)ncc34)cc2n1CC(F)F [Compound 1885, 5-(1-(2,2-Difluoroethyl)-2-methyl-1H-imidazo[4,5-b]pyridin-6-yl)-N-((3R,4R)-3-fluoro-1-methylpiperidin-4-yl)pyrrolo[2,1-f][1,2,4]triazin-2-amine]"
8,8.52,"Cc1nc2ncc(-c3ccn4nc(NC5CCC6(CC5)OCCO6)ncc34)cc2n1CC(F)F [Compound 1880, 5-(1-(2,2-Difluoroethyl)-2-methyl-1H-imidazo[4,5-b]pyridin-6-yl)-N-(1,4-dioxaspiro[4.5]decan-8-yl)pyrrolo[2,1-f][1,2,4]triazin-2-amine]"
9,8.30,"CO[C@H]1CC[C@H](Nc2ncc3c(-c4cnc5nc(C)n(CC(F)F)c5c4)ccn3n2)CC1 [Compound 686, 5-(1-(2,2-Difluoroethyl)-2-methyl-1H-imidazo[4,5-b]pyridin-6-yl)-N-(trans-4-methoxycyclohexyl)pyrrolo[2,1-f][1,2,4]triazin-2-amine]"
10,6.30,"Cc1nc2ccc(-c3ccn4nc(N[C@H]5CC[C@@](C)(O)CC5)ncc34)nc2n1CC(=O)N(C)C [Compound 1872, 2-(5-(2-((cis-4-Hydroxy-4-methylcyclohexyl)amino)pyrrolo[2,1-f][1,2,4]triazin-5-yl)-2-methyl-3H-imidazo[4,5-b]pyridin-3-yl)-N,N-dimethylacetamide]"
11,8.30,"Cc1nc2ncc(-c3ccn4nc(NC5CCOCC5)ncc34)cc2n1CC(F)F [Compound 706, 5-(1-(2,2-Difluoroethyl)-2-methyl-1H-imidazo[4,5-b]pyridin-6-yl)-N-(tetrahydro-2H-pyran-4-yl)pyrrolo[2,1-f][1,2,4]triazin-2-amine]"
12,8.52,"Cc1nc2ccc(-c3ccn4nc(NC5CCC6(CC5)COC6)ncc34)nc2n1CC(F)F [Compound 1961, 5-(3-(2,2-Difluoroethyl)-2-methyl-3H-imidazo[4,5-b]pyridin-5-yl)-N-(2-oxaspiro[3.5]nonan-7-yl)pyrrolo[2,1-f][1,2,4]triazin-2-amine]"
13,7.80,"Cc1nc2ccc(-c3ccn4nc(NC5CCN(C)CC5)ncc34)nc2n1CC(F)F [Compound 1131, 5-(3-(2,2-Difluoroethyl)-2-methyl-3H-imidazo[4,5-b]pyridin-5-yl)-N-(1-methylpiperidin-4-yl)pyrrolo[2,1-f][1,2,4]triazin-2-amine]"
14,7.96,"Cc1nc2ncc(-c3ccn4nc(NCC(C)(C)F)ncc34)cc2n1C1CC(F)(F)C1 [Compound 713, 5-(1-(3,3-Difluorocyclobutyl)-2-methyl-1H-imidazo[4,5-b]pyridin-6-yl)-N-(2-fluoro-2-methylpropyl)pyrrolo[2,1-f][1,2,4]triazin-2-amine]"
15,8.40,"FC1(CNc2ncc3c(-c4cnc5nccn5c4)ccn3n2)CCC1 [Compound 227, N-((1-Fluorocyclobutyl)methyl)-5-(imidazo[1,2-a]pyrimidin-6-yl)pyrrolo [2,1-f][1,2,4]triazin-2-amine]"
16,8.30,"CC(=O)N1CC[C@@H](Nc2ncc3c(-c4ccc5nc(C)n(CC(F)F)c5n4)ccn3n2)[C@@H](F)C1 [Compound 1951, 1-((3S,4R)-4-((5-(3-(2,2-Difluoroethyl)-2-methyl-3H-imidazo[4,5-b]pyridin-5-yl)pyrrolo[2,1-f] [1,2,4]triazin-2-yl)amino)-3-fluoropiperidin-1-yl)ethan-1-one]"
17,7.31,"CN1CCC(Nc2ncc3c(-c4cnc5nccn5c4)ccn3n2)CC1 [Compound 279, 5-(Imidazo[1,2-a]pyrimidin-6-yl)-N-(1-methylpiperidin-4-yl)pyrrolo[2,1-f][1,2,4]triazin-2-amine]"

row,pEC50,Compound
1,7.18,"Cn1nnc2ccc(-c3ccn4nc(NCC(C)(C)F)ncc34)cc21 [Compound 1210, N-(2-Fluoro-2-methylpropyl)-5-(1-methyl-1H-benzo[d][1,2,3]triazol-6-yl) pyrrolo[2,1-f][1,2,4]triazin-2-amine]"
2,8.00,"C[C@]1(O)CC[C@H](Nc2ncc3c(-c4ccc5nccn5c4)ccn3n2)CC1 [Compound 1828, trans-4-((5-(Imidazo[1,2-a]pyridin-6-yl)pyrrolo[2,1-f][l,2,4]triazin-2-yl)amino) -1-methylcyclohexan-1-ol]"
3,8.30,"CCO[C@H]1C[C@@H](Nc2ncc3c(-c4cnc5nccn5c4)ccn3n2)C1 [Compound 242, N-(cis-3-Ethoxycyclobutyl)-5-(imidazo[1,2-a]pyrimidin-6-yl)pyrrolo[2,1-f] [1,2,4]triazin-2-amine]"
4,8.05,"FC1(F)CC(Nc2ncc3c(-c4cnc5nccn5c4)ccn3n2)C1 [Compound 236, N-(3,3-Difluorocyclobutyl)-5-(imidazo[1,2-a]pyrimidin-6-yl)pyrrolo[2,1-f] [1,2,4]triazin-2-amine]"
5,8.70,"Cc1nc2ncc(-c3ccn4nc(NC5CCN(CCF)CC5)ncc34)cc2n1CC(F)F [Compound 1881, 5-(1-(2,2-Difluoroethyl)-2-methyl-1H-imidazo[4,5-b]pyridin-6-yl)-N-(1-(2-fluoroethyl)piperidin-4-yl)pyrrolo[2,1-f][1,2,4]triazin-2-amine]"
6,8.70,Cc1nc2ncc(-c3ccn4nc(N[C@H]5CC[C@@H](OCC(F)F)CC5)ncc34)cc2n1CC(F)F [Compound 1877]
7,8.40,"Cc1nc2ccc(-c3ccn4nc(NC5CCC6(CC5)CN(C)C6)ncc34)nc2n1CC(F)F [Compound 1846, 5-(3-(2,2-Difluoroethyl)-2-methyl-3H-imidazo[4,5-b]pyridin-5-yl)-N-(2-methyl-2-azaspiro[3.5]nonan-7-yl)pyrrolo[2,1-f][1,2,4]triazin-2-amine]"
8,7.59,"Cc1nc2ccc(-c3ccn4nc(N[C@H]5CC[C@@H](OC(F)(F)F)CC5)ncc34)nc2n1CC(F)F [Compound 1792, 5-(3-(2,2-Difluoroethyl)-2-methyl-3H-imidazo[4,5-b]pyridin-5-yl)-N-(cis-4-(trifluoromethoxy)cyclohexyl)pyrrolo[2,1-f][1,2,4]triazin-2-amine]"
9,7.09,"COCCNc1ncc2c(-c3ccc4nccn4c3)ccn2n1 [Compound 9, 5-(Imidazo[1,2-a]pyridin-6-yl)-N-(2-methoxyethyl)pyrrolo[2,1-f][1,2,4] triazin-2-amine]"
10,7.14,"Cc1nc2ccc(-c3ccn4nc(NC5CCOCC5)ncc34)nc2n1CC(C)(C)O [Compound 1871, 2-Methyl-1-(2-methyl-5-(2-((tetrahydro-2H-pyran-4-yl)amino)pyrrolo[2,1-f][1,2,4]triazin-5-yl)-3H-imidazo[4,5-b]pyridin-3-yl)propan-2-ol]"
11,8.10,"COC[C@H]1C[C@H](Nc2ncc3c(-c4ccc5nccnc5c4)ccn3n2)C1 [Compound 1377, N-(trans-3-(Methoxymethyl)cyclobutyl)-5-(quinoxalin-6-yl)pyrrolo[2,1-f] [1,2,4]triazin-2-amine]"
12,8.52,CCO[C@H]1CC[C@@H](Nc2ncc3c(-c4cnc5ncccc5c4)ccn3n2)CC1 [Compound 1541]
13,8.70,Cc1nc2ncc(-c3ccn4nc(N[C@H]5CC[C@@H](OC(F)F)CC5)ncc34)cc2n1CC(F)F [Compound 687]
14,8.40,"Cc1nc2ncc(-c3ccn4nc(N[C@H]5C[C@@](C)(O)C5)ncc34)cc2n1CC(F)F [Compound 1813, cis-3-((5-(1-(2,2-Difluoroethyl)-2-methyl-1H-imidazo [4,5-b]pyridin-6-yl)pyrrolo[2,1-f] [1,2,4]triazin-2-yl)amino)-1-methylcyclobutan-1-ol]"
15,8.15,"Cc1nc2ccc(-c3ccn4nc(N[C@@H]5CCN(CC(C)C)C[C@@H]5F)ncc34)nc2n1CC(F)F [Compound 1908, 5-(3-(2,2-Difluoroethyl)-2-methyl-3H-imidazo[4,5-b]pyridin-5-yl)-N-((3S,4R)-3-fluoro-1-isobutylpiperidin-4-yl)pyrrolo[2,1-f] [1,2,4]triazin-2-amine]"
16,8.22,Cc1nc2ccc(-c3ccn4nc(N[C@H]5CC[C@@H](OCC(F)F)CC5)ncc34)nc2n1CC(F)F [Compound 1838]
